The target in one experiment is FLT3(D835V) (Homo sapiens (Human), UniProt P36888, D835V). Nature of the experiment: KINOMEscan binding, FLT3(D835V). The protocol: (§1) The inhibitory activity on FLT kinase, such as wild-type FLT1, FLT3, FLT4, and FLT3 mutation forms, FLT3(D835H), FLT3(D835V), FLT3(D835Y), FLT3(ITD), FLT3(ITD,D835V), FLT3(ITD,F691L), FLT3(K663Q), FLT3(N841I), FLT3(R834Q) was measured.
(§2) FLT3 kinase inhibition was carried out by KINOMEscan method (DiscoverX Inc.). KINOMEscan method consists of the following processes. T7 bacteriophage labeled with FLT kinase was cultured by the infection to E. coli derived from BL21. After the infection of E. coli in the condition of 0.4 of MOI (multiplicity of infection), it was cultured for 90 to 150 minutes at 32° C. to lyse E. coli. The cell debris was removed by centrifugation and filtration, and the kinase protein present in the supernatant was secured. Additionally, the kinase protein was labeled with DNA for the qPCR measurement. The magnetic beads labeled with streptavidin were treated with the standard compound labeled with biotin and reacted for 30 minutes. The resulting beads were used as affinity beads for the measurement of a kinase activity. The binding reaction was initiated with mixing a kinase protein, the affinity beads bound with a ligand, and the compound. In this case, the used buffer solution was 20% SeaBlock, 0.17×PBS, 0.05% Tween 20, 6 mM DTT. […] The affinity of the compound to be tested was indirectly measured by Quantifying the eluted kinase by […].

Experiment [1] has as its system Ba/F3 EGFR del19 cell line. Description: CellTiter-Glo cell viability, Ba/F3 EGFR del19. As to conditions: 72 hours. The class given is cell-based. The protocol: (§3) The measurement of an activity on wild-type and mutation Ba/F3 EGFR cell line of the compound of the present invention was experimented by utilizing the CellTiter-Glo system sold by Promega, as follow. The CellTiter-Glo assay is a method for measuring the ATP present in cells in cell culture conditions to determine the cell viability.
(§4) The analysis of an EGFR inhibitory ability effect of the compound was carried out in accordance with the analysis reaction recipe below.
(§5) After the reaction of 72 hours, the plate treated with the compound was allowed to stand for 30 minutes at ambient temperature, and then, was further treated with 100 μl of the reagent, and was shaked for 10 minutes at ambient temperature. […] The measurement values measured at the eight concentrations of the compound were analyzed by using the Prism program (version 5.01, Graphpad Software, Inc.), and IC50 value of the compound was calculated, which is an inhibitory ability indicator.

Experiment [2] has as its system pERK, pAKT, pS6 (EGFR sub-signal) in Ba/F3 Del19/T790M/C797S cell line. Nature of the experiment: EGFR sub-signal activity (pERK, pAKT, pS6) alone or in combination with cetuximab. The class given is cell-based. As to conditions: for activity in pERK, pAKT, pS6 (EGFR sub-signal) when administered alone: 30, 100, 300, 1000 nM alone; for sub-signal activity when administered in combination with cetuximab: 30, 100, 300, 1000 nM plus 10 μg cetuximab; for sub-signal activity compared with brigatinib in combination with cetuximab: vs brigatinib plus cetuximab. The method, then:
In addition, when administering each of brigatinib, the compounds of Examples 10 and 11 of the present invention in 30, 100, 300, 1000 nM alone or in combination with 10 μg of cetuximab, the sub-signal activity on a/F3 Del19/T790M/C797S cell line was evaluated and the results are shown in FIGS. 5 to 7.

Another experiment has as its target FLT1 (Homo sapiens (Human), UniProt P17948). Nature of the experiment: KINOMEscan binding, FLT1. The protocol:
as §1, §2

The next experiment addresses EGFR del19/T790M/C797S (Homo sapiens, UniProt P00533, C797S/DEL746-750/T790M). Nature of the experiment: HTRF enzyme assay, EGFR del19/T790M/C797S. In kind it is biochemical. The method, then:
The measurement of an activity on wild-type and EGFR mutation enzyme of the compound of the present invention was experimented by utilizing the HTRF system sold by Cisbio, as follow.
The composition of the assay buffer used in the activity measurement was 50 mM Tris-HCl pH 7.5, 100 mM NaCl, 7.5 mM MgCl2, 3 mM KCl, 0.01% Tween 20, 0.1% BSA, 1 mM DTT. The enzymatic reaction was carried out hereto by using the peptide substrate labeled with ATP of […] concentration and biotin of […] concentration. The analysis of an EGFR activity inhibitory effect of the compound was carried out in accordance with the analysis reaction recipe below.
Component 1: […] of EGFR wild-type or mutation enzyme
Component 2: […] of compound solution
Component 3: […] of peptide labeled with ATP and biotin
The enzymatic reaction was initiated by mixing Component 1 and Component 2 first, and then, adding component 3. After the reaction for 2 hours at 37° C., […] of a measurement solution consisting of streptavidin-XL665 provided by Cisbio and anti-phosphotyrosine antibody labeled with europium was added to the enzymatic reaction solution and reacted for 1 hour at ambient temperature. […] The measurement values measured at the seven concentrations of the compound were analyzed by using the Prism program (version 5.01, Graphpad Software, Inc.), and IC50 value of the compound was calculated, which is an inhibitory ability indicator.

In experiment [3] the test system is Ba/F3 EGFR del19/T790M cell line. Nature of the experiment: CellTiter-Glo cell viability, Ba/F3 EGFR del19/T790M. As to conditions: read-out: Ba/F3 EGFR del19/T790M IC50. The class given is cell-based. The method, then:
as §3, §4
(§6) After the reaction of 72 hours, the plate treated with the compound was allowed to stand for 30 minutes at ambient temperature, and then, was further treated with 100 μl of the reagent, and was shaked for 10 minutes at ambient temperature.
A general note: In ATP-based viability assays light output follows the ATP content of the culture.

The target of another experiment is FLT3 (Homo sapiens (Human), UniProt P36888). Description: KINOMEscan binding, FLT3. The settings on record: for inhibitory ability on FLT 3 kinase in comparison with FLT 1 and FLT 4: selectivity in words. The method, then: as §1
FLT3 kinase inhibition was carried out by KINOMEscan method (DiscoverX Inc.). KINOMEscan method consists of the following processes. T7 bacteriophage labeled with FLT kinase was cultured by the infection to E. coli derived from BL21. After the infection of E. coli in the condition of 0.4 of MOI (multiplicity of infection), it was cultured for 90 to 150 minutes at 32° C. to lyse E. coli. The cell debris was removed by centrifugation and filtration, and the kinase protein present in the supernatant was secured. Additionally, the kinase protein was labeled with DNA for the qPCR measurement. The magnetic beads labeled with streptavidin were treated with the standard compound labeled with biotin and reacted for 30 minutes. The resulting beads were used as affinity beads for the measurement of a kinase activity. The binding reaction was initiated with mixing a kinase protein, the affinity beads bound with a ligand, and the compound. In this case, the used buffer solution was 20% SeaBlock, 0.17×PBS, 0.05% Tween 20, 6 mM DTT. All the reactions were carried out in volume of 20 ul at a 384 well plate. After the reaction for 1 hour at ambient temperature, the beads were washed with the solution consisting of 1×PBS, 0.05 Tween 20. Finally, the kinase bound with the beads was eluted by using 1×PBS, 0.05 Tween 20, 0.5 uM standard compound unlabeled with biotin. The affinity of the compound to be tested was indirectly measured by Quantifying the eluted kinase by […].

For another experiment, the target named is FLT4 (Homo sapiens (Human), UniProt P35916). Nature of the experiment: KINOMEscan binding, FLT4. The method, then:
as §1, §2

A further experiment concerns the target FLT3(ITD, D835V) (Homo sapiens, UniProt P36888, D835V/ITD). Description: KINOMEscan binding, FLT3(ITD, D835V). The protocol:
as §1, §2

The target of the next experiment is FLT3(D835H) (Homo sapiens (Human), UniProt P36888, D835H). Nature of the experiment: KINOMEscan binding, FLT3(D835H). The protocol:
as §1, §2

Experiment [4] deals with Ba/F3 EGFR del19/T790M/C797S cell line. Nature of the experiment: CellTiter-Glo cell viability, Ba/F3 EGFR del19/T790M/C797S. The class given is cell-based. As to conditions: read-out: Ba/F3 EGFR del19/T790M/C797S IC50. The protocol: as §3, §4, §6
In another experiment the test system is Ba/F3 EGFR wt. cell line. Description: CellTiter-Glo cell viability, Ba/F3 EGFR wild-type. In kind it is cell-based. The settings on record: 72 hours. The protocol: as §3, §4, §5
A further experiment concerns the target FLT3(K663Q) (Homo sapiens (Human), UniProt P36888, K663Q). Nature of the experiment: KINOMEscan binding, FLT3(K663Q). The protocol: as §1, §2
The target of a further experiment is FLT3(ITD) (Homo sapiens, UniProt P36888, ITD). Nature of the experiment: KINOMEscan binding, FLT3(ITD). The protocol:
as §1, §2

Here are results for two compounds from US11253516B2, “N2,N4-diphenylpyrimidine-2,4-diamine derivative, method for preparing same, and pharmaceutical composition containing same as active ingredient for prevention or treatment of cancer” (Korea Research Institute of Chemical Technology, priority 2017, dated 2022).

pIC50, pKd: −log10 of the molar value. Where two headings read alike, the source gives them in different places.

As a reminder, the pKd is −log10 of the Kd, conventionally taken in molar units. Low values mean a high Kd, high ones a low Kd.

FLT4, sequence (P35916 25-1363): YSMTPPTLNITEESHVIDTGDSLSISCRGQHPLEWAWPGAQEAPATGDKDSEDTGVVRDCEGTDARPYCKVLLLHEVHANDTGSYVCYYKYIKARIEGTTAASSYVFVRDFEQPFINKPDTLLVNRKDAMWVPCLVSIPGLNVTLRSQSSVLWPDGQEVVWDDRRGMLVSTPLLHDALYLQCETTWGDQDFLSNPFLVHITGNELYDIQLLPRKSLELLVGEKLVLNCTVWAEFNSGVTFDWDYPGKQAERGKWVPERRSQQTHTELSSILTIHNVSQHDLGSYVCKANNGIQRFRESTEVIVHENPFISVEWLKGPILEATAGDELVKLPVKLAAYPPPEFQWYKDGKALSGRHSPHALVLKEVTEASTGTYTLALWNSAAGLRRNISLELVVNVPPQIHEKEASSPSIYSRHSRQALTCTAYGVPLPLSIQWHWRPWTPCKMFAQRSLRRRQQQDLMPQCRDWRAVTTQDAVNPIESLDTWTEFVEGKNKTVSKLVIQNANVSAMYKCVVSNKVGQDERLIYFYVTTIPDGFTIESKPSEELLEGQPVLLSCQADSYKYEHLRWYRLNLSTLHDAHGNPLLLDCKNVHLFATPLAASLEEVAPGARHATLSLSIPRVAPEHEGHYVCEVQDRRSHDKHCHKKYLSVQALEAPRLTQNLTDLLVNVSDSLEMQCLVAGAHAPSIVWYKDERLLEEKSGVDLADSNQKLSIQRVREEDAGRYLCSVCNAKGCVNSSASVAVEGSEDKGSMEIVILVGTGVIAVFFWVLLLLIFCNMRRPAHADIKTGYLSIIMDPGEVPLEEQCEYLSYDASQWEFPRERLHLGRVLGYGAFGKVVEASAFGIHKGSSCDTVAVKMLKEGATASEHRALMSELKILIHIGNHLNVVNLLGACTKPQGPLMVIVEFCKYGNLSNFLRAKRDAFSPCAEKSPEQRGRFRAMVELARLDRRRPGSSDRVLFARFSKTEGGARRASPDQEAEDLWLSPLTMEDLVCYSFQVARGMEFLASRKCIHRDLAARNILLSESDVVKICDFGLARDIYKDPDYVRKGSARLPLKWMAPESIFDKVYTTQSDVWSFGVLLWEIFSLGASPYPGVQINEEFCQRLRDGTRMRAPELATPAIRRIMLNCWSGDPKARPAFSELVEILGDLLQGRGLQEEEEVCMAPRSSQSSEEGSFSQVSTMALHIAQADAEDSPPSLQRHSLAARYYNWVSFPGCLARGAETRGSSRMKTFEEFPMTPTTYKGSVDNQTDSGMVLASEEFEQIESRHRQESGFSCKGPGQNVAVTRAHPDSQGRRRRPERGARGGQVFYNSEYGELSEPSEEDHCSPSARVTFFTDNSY
FLT1, sequence (P17948 27-1338): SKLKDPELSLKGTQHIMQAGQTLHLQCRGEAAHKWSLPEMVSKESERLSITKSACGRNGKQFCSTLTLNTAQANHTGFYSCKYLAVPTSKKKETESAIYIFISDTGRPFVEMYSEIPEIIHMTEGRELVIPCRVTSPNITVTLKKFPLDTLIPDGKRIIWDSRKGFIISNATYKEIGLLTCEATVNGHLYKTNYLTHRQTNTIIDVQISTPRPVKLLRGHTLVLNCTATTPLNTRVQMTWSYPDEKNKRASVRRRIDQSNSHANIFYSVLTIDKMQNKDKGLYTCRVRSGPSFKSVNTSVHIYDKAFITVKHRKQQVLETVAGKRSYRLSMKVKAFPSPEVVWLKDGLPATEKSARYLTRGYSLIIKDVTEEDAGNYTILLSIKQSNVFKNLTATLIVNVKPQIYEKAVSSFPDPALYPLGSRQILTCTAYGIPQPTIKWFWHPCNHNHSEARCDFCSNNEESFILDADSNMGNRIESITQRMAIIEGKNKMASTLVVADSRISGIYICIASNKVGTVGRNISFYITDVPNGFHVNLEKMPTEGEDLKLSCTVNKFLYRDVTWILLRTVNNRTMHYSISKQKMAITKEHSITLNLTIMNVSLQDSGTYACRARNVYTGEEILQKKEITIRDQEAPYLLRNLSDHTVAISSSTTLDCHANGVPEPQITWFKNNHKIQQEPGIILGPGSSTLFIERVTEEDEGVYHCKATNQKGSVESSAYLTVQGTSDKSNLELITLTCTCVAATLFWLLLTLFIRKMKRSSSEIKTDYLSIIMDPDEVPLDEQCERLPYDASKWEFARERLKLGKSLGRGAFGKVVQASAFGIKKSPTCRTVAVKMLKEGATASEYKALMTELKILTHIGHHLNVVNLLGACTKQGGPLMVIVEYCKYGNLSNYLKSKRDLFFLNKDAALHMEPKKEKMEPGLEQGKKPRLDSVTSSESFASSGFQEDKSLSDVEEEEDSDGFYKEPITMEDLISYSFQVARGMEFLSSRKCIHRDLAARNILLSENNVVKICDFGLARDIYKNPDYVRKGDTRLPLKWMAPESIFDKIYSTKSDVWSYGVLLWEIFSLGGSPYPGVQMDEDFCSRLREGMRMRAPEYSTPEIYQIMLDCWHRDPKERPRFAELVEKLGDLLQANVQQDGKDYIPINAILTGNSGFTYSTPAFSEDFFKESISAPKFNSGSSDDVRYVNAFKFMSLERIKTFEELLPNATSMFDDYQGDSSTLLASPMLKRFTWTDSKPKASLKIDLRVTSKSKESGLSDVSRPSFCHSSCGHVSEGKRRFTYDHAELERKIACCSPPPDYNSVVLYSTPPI
EGFR del19/T790M/C797S, sequence (P00533 with tags, fused parts or gaps C797S/DEL746-750/T790M limits assumed): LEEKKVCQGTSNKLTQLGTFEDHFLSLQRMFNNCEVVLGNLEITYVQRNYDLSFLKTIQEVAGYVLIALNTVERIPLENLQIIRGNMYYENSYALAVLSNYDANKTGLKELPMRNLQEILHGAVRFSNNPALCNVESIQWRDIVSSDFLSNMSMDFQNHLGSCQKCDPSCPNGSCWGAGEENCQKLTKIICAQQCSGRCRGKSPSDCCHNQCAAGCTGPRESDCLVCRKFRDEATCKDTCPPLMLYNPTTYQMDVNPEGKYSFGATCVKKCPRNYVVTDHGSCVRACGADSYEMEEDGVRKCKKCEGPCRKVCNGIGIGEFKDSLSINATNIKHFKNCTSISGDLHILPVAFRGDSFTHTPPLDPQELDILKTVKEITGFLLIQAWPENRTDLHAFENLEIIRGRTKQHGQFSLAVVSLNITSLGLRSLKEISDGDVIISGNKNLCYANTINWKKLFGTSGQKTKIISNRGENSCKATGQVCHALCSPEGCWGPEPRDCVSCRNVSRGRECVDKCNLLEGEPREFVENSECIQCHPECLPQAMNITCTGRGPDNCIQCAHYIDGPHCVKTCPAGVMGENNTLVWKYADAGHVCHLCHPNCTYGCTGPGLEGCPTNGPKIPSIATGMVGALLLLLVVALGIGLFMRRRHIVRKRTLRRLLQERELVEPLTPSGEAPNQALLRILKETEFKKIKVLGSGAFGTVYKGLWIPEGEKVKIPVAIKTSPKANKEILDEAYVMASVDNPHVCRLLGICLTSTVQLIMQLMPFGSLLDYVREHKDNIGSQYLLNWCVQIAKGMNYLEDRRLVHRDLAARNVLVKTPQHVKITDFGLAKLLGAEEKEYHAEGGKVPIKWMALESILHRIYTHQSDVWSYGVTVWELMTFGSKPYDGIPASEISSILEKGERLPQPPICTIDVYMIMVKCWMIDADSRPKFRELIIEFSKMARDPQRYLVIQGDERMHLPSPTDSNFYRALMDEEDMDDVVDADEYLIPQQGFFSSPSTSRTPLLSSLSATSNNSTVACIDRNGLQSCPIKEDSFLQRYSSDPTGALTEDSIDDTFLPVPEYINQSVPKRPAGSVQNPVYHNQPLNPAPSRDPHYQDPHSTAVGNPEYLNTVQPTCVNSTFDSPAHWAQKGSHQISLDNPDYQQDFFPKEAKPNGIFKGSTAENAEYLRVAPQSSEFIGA

For `COc1cc(N2CCC(N(C)C)CC2)ccc1Nc1ncc(Cl)c(Nc2ccccc2NS(C)(=O)=O)n1` [Example 11, N-(2-((5-chloro-2-((4-(4-(dimethylamino)piperidin-1-yl)-2-methoxyphenyl)amino)pyrimidin-4-yl)amino)phenyl)methanesulfonamide], the pKd at FLT3(D835V) is 10.09; on FLT1, 6.04; at FLT3, 8.92; on FLT4 it was 7.09; on FLT3(ITD, D835V), 9.80; on FLT3(D835H) it was 8.74. Besides, the figures for the negative logarithm of the Kd (pKd) at FLT3(K663Q) and on FLT3(ITD) were 7.70 and 8.38, respectively. Besides, the pIC50 in experiment [1] is 8.33; at EGFR del19/T790M/C797S (HTRF, recombinant enzyme, read-out: EGFR del19/T790M/C797S IC50), 8.22; in experiment [3] (CellTiter-Glo, 72 hours), 7.51; in experiment [4] (CellTiter-Glo, 72 hours), 7.42; with Ba/F3 EGFR wt. cell line, 6.47. Also, the “activity in pERK, pAKT, pS6 (EGFR sub-signal) when administered alone” value in experiment [2] is recorded as “concentration-dependent activity”. In addition, the “sub-signal activity when administered in combination with cetuximab” value in [2] is listed as “superior activity”. Moreover, in experiment [2], the “sub-signal activity compared with brigatinib in combination with cetuximab” value is “superior activity”. In addition, the “inhibitory ability on FLT 3 kinase in comparison with FLT 1 and FLT 4” value on FLT3 is “selectively superior inhibitory ability”.

Consider `COc1cc(N2CCC(N3CCN(C)CC3)CC2)ccc1Nc1ncc(Cl)c(Nc2ccccc2NS(C)(=O)=O)n1` [Example 10, N-(2-((5-chloro-2-((2-methoxy-4-(4-(4-methylpiperazin-1-yl)piperidin-1-yl)phenyl)amino)pyrimidin-4-yl)amino)phenyl)methanesulfonamide], for which the pKd was 9.54 at FLT3(D835V); less than 5.00 on FLT1; 8.43 on FLT3; 6.70 at FLT4; 9.49 at FLT3(ITD, D835V); 7.42 at FLT3(D835H). Besides, the figures for the negative logarithm of the Kd (pKd) at FLT3(K663Q) and at FLT3(ITD) were 7.41 and 7.74, respectively. Moreover, the pIC50 in [1] is 6.74; against EGFR del19/T790M/C797S, 9.70; in [3] (72 h), 7.00; in experiment [4] (72 h) it was 7.20; with Ba/F3 EGFR wt. cell line, 6.00. For the same compound, the “activity in pERK, pAKT, pS6 (EGFR sub-signal) when administered alone” value in experiment [2] is recorded as “concentration-dependent activity”. Besides, the “sub-signal activity when administered in combination with cetuximab” value in [2] was “superior activity”. Besides, the “sub-signal activity compared with brigatinib in combination with cetuximab” value in experiment [2] is reported as “superior activity”. Also, at FLT3, the “inhibitory ability on FLT 3 kinase in comparison with FLT 1 and FLT 4” value is on record as “selectively superior inhibitory ability”.
